Source: patent US20140303092A1 (CHIMERIX, INC., priority 2011, published 2014)

Assay: Study HDP-CDV-201: safety and tolerability (adverse events, laboratory abnormalities, discontinuations)
Assay type: in vivo, human (adult allogeneic HSCT recipients)
Procedure: Clinical Studies of HDP-CDV were performed and described in detail in the following Examples. For example, HDP-CDV-201 is a placebo-controlled, dose-escalating trial in HSCT CMV (R+) recipients, evaluating the ability of HDP-CDV to prevent or control CMV infection was carried out. Five cohorts were established in which participants or subjects received either placebo or the HDP-CDV orally, in doses ranging from 40 mg weekly (QW) to 200 mg twice weekly (BIW). Subjects who were post-HSCT were enrolled at the time of engraftment and randomized to HDP-CDV or placebo (3 to 1 ratio) and received blinded therapy until approximately 100 day post-transplantation. HDP-CDV doses were 40 mg QW, 100 mg QW, 200 mg QW, 200 mg BIW and 100 mg BIW. Escalation to the next dose was decided by the data monitoring committee after review of the safety data from the previous Cohort. Subjects who developed CMV disease or CMV infection requiring pre-emptive therapy with local standard of care were discontinued from blinded therapy and followed for 4 weeks. Subjects who completed treatment with blinded therapy were followed for 8 weeks post-therapy.
Data from Study HDP-CDV-201 also provided characterization of the safety and tolerability profile of HDP-CDV when administered for the prevention or control of CMV infection in high risk (R^+) post-HSCT adult subjects.
The Safety population (SAFETY) included all randomized subjects who took at least one dose of study treatment. This population was used to summarize safety outcomes based on the treatment actually received, in cases where a subject was treated contrary to the randomization schedule.
The safety and tolerability profile of HDP-CDV, including subject demographics and Baseline characteristics; the AE profile; and laboratory abnormalities of interest were analyzed in the cohorts followed in this investigation.
Subjects completing the treatment period received a full course of study medication; those completing the entire study attended visits through 8 weeks of follow up. Subjects who discontinued treatment may have done so for protocol specified reasons (e.g. development of clinically significant CMV infection requiring preemptive treatment with excluded anti-CMV medications) or for other reasons (e.g., withdrawal, adverse events, loss to follow-up). The disposition of subjects in Study HDP-CDV-201 during the double-blind, placebo-controlled treatment period (through Week 11) is listed by dosing Cohort in TABLE 23.
Adverse events were examined by severity to ensure that all safety signals were identified in this study population. Because of the frequency of events in HSCT recipients, particular attention was given to evaluation of Grade 3 […], 4 (severe), and 5 (fatal) adverse events.
Only those preferred terms for which at least one Grade 3 or higher event was experienced in any treatment group are listed. Cytomegalovirus-related AEs are excluded from this analysis.
HDP-CDV is a lipid conjugate of CDV. Because CDV is known to have adverse effects on renal function and bone marrow, decreased GFR and persistent neutropenia were identified as AEs of special interest. Key renal and hematological (TABLE 30) laboratory parameters were measured and listed below by Study HDP-CDV-201 treatment groups. TABLE 30 includes abnormal levels of serum creatinine, neutrophils, platelets, WBCs, and hemoglobin and includes data at Screening and during the treatment period.
A common metric for unit based dosing of medications is by weight (mg/kg). When the distribution of weights was examined for all subjects participating in the study, the median was 78 kg and the lower 25th percentile weight was approximately 65 kg, which translates to a cut-off of ˜3 mg/kg for a 200 mg total weekly dose. Based upon this approach, a cut-off of 3 mg/kg was used to assess the frequency of diarrhea and associated GI AEs reported for the subjects in Cohorts 3 or 4a (TABLE 40).

In the case of `CCCCCCCCCCCCCCCCOCCCOP(=O)(O)COC(CO)Cn1ccc(N)nc1=O` (stereo not drawn) [HDP-CDV], the “TEAE GGT Increased, Frequency” value (100 mg QW) is reported as 1 (3.7%), the “TEAE GGT Increased, Grade 2” value (100 mg QW) is reported as 1 (3.7%) and the “TEAE GGT Increased, Grade 3” value (100 mg QW) is reported as 0. For the same molecule, the “TEAE GGT Increased, Grade 4” value (100 mg QW) was 0, the “TEAE GGT Increased, Grade 5” value (100 mg QW) was 0 and the “TEAE Generalized oedema, Frequency” value (100 mg QW) was 0. The “TEAE Generalized oedema, Grade 2” value (100 mg QW) was 0, the “TEAE Generalized oedema, Grade 3” value (100 mg QW) was 0 and the “TEAE Generalized oedema, Grade 4” value (100 mg QW) was 0. For the same molecule, the “TEAE Generalized oedema, Grade 5” value (100 mg QW) was 0, the “TEAE Hyperbilirubinaemia, Frequency” value (100 mg QW) was 0 and the “TEAE Hyperbilirubinaemia, Grade 2” value (100 mg QW) was 0. The “TEAE Hyperbilirubinaemia, Grade 3” value (100 mg QW) was 0, the “TEAE Hyperbilirubinaemia, Grade 4” value (100 mg QW) was 0 and the “TEAE Hyperbilirubinaemia, Grade 5” value (100 mg QW) was 0. For the same molecule, the “TEAE Hyperglycaemia, Frequency” value (100 mg QW) was 1 (3.7%), the “TEAE Hyperglycaemia, Grade 2” value (100 mg QW) was 0 and the “TEAE Hyperglycaemia, Grade 3” value (100 mg QW) was 1 (3.7%). The “TEAE Hyperglycaemia, Grade 4” value (100 mg QW) was 0, the “TEAE Hyperglycaemia, Grade 5” value (100 mg QW) was 0 and the “TEAE Hyperkalemia, Frequency” value (100 mg QW) was 1 (3.7%). For the same molecule, the “TEAE Hyperkalemia, Grade 2” value (100 mg QW) was 0, the “TEAE Hyperkalemia, Grade 3” value (100 mg QW) was 1 (3.7%) and the “TEAE Hyperkalemia, Grade 4” value (100 mg QW) was 0. The “TEAE Hyperkalemia, Grade 5” value (100 mg QW) was 0, the “TEAE Hypocalcaemia, Frequency” value (100 mg QW) was 0 and the “TEAE Hypocalcaemia, Grade 2” value (100 mg QW) was 0. For the same molecule, the “TEAE Hypocalcaemia, Grade 3” value (100 mg QW) was 0, the “TEAE Hypocalcaemia, Grade 4” value (100 mg QW) was 0 and the “TEAE Hypocalcaemia, Grade 5” value (100 mg QW) was 0. For the same molecule, the “TEAE Hypokalaemia, Frequency” value (100 mg QW) was 2 (7.4%), the “TEAE Hypokalaemia, Grade 2” value (100 mg QW) was 0 and the “TEAE Hypokalaemia, Grade 3” value (100 mg QW) was 0. For the same molecule, the “TEAE Hypokalaemia, Grade 4” value (100 mg QW) was 0, the “TEAE Hypokalaemia, Grade 5” value (100 mg QW) was 0 and the “TEAE Hyponatraemia, Frequency” value (100 mg QW) was 1 (3.7%). The “TEAE Hyponatraemia, Grade 2” value (100 mg QW) was 0, the “TEAE Hyponatraemia, Grade 3” value (100 mg QW) was 0 and the “TEAE Hyponatraemia, Grade 4” value (100 mg QW) was 0. For the same molecule, the “TEAE Hyponatraemia, Grade 5” value (100 mg QW) was 0, the “TEAE LFT Abnormal, Frequency” value (100 mg QW) was 1 (3.7%) and the “TEAE LFT Abnormal, Grade 2” value (100 mg QW) was 0. For the same molecule, the “TEAE LFT Abnormal, Grade 3” value (100 mg QW) was 0, the “TEAE LFT Abnormal, Grade 4” value (100 mg QW) was 0 and the “TEAE LFT Abnormal, Grade 5” value (100 mg QW) was 0. The “TEAE Leukocytosis, Frequency” value (100 mg QW) was 0, the “TEAE Leukocytosis, Grade 2” value (100 mg QW) was 0 and the “TEAE Leukocytosis, Grade 3” value (100 mg QW) was 0. For the same molecule, the “TEAE Leukocytosis, Grade 4” value (100 mg QW) was 0, the “TEAE Leukocytosis, Grade 5” value (100 mg QW) was 0 and the “TEAE Nausea, Frequency” value (100 mg QW) was 5 (18.5%). For the same molecule, the “TEAE Nausea, Grade 2” value (100 mg QW) was 1 (3.7%), the “TEAE Nausea, Grade 3” value (100 mg QW) was 0 and the “TEAE Nausea, Grade 4” value (100 mg QW) was 0. The “TEAE Nausea, Grade 5” value (100 mg QW) was 0, the “TEAE Neutropenia, Frequency” value (100 mg QW) was 4 (14.8%) and the “TEAE Neutropenia, Grade 2” value (100 mg QW) was 1 (3.7%). The “TEAE Neutropenia, Grade 3” value (100 mg QW) was 2 (7.4%), the “TEAE Neutropenia, Grade 4” value (100 mg QW) was 1 (3.7%) and the “TEAE Neutropenia, Grade 5” value (100 mg QW) was 0. The “TEAE Pneumonia, Frequency” value (100 mg QW) was 2 (7.4%), the “TEAE Pneumonia, Grade 2” value (100 mg QW) was 0 and the “TEAE Pneumonia, Grade 3” value (100 mg QW) was 1 (3.7%). For the same molecule, the “TEAE Pneumonia, Grade 4” value (100 mg QW) was 1 (3.7%), the “TEAE Pneumonia, Grade 5” value (100 mg QW) was 0 and the “TEAE Pyrexia, Frequency” value (100 mg QW) was 1 (3.7%). The “TEAE Pyrexia, Grade 2” value (100 mg QW) was 0, the “TEAE Pyrexia, Grade 3” value (100 mg QW) was 0 and the “TEAE Pyrexia, Grade 4” value (100 mg QW) was 0. The “TEAE Pyrexia, Grade 5” value (100 mg QW) was 0, the “TEAE Renal Failure, Frequency” value (100 mg QW) was 2 (7.4%) and the “TEAE Renal Failure, Grade 2” value (100 mg QW) was 2 (7.4%). For the same molecule, the “TEAE Renal Failure, Grade 3” value (100 mg QW) was 0, the “TEAE Renal Failure, Grade 4” value (100 mg QW) was 0 and the “TEAE Renal Failure, Grade 5” value (100 mg QW) was 0. For the same molecule, the “TEAE Staphylococcal Bacteremia, Frequency” value (100 mg QW) was 1 (3.7%), the “TEAE Staphylococcal Bacteremia, Grade 2” value (100 mg QW) was 0 and the “TEAE Staphylococcal Bacteremia, Grade 3” value (100 mg QW) was 1 (3.7%). The “TEAE Staphylococcal Bacteremia, Grade 4” value (100 mg QW) was 0, the “TEAE Staphylococcal Bacteremia, Grade 5” value (100 mg QW) was 0 and the “TEAE Thrombocytopenia, Frequency” value (100 mg QW) was 3 (11.1%). For the same molecule, the “TEAE Thrombocytopenia, Grade 2” value (100 mg QW) was 1 (3.7%), the “TEAE Thrombocytopenia, Grade 3” value (100 mg QW) was 1 (3.7%) and the “TEAE Thrombocytopenia, Grade 4” value (100 mg QW) was 1 (3.7%). The “TEAE Thrombocytopenia, Grade 5” value (100 mg QW) was 0, the “TEAE Vomiting, Frequency” value (100 mg QW) was 6 (22.2%) and the “TEAE Vomiting, Grade 2” value (100 mg QW) was 2 (7.4%). For the same molecule, the “TEAE Vomiting, Grade 3” value (100 mg QW) was 0, the “TEAE Vomiting, Grade 4” value (100 mg QW) was 0 and the “TEAE Vomiting, Grade 5” value (100 mg QW) was 0. The “Subjects Reporting Diarrhea as an AE” value (100 mg QW, n = 27) was 8 (29.6%), the “Discontinuation: Death” value (100 mg QW, active treatment period) was 0 Subject n (%) and the “Discontinuation: Adverse event” value (100 mg QW, active treatment period through Week 11) was 3 (11.1%) Subject n (%). For the same molecule, the “subjects who discontinued study medications” value (100 mg weekly) was 33%, the “TEAE ALT increased, Frequency” value (200 mg BIW) was 10 (33.3%) and the “TEAE ALT increased, Grade 2” value (200 mg BIW) was 4 (13.3%). The “TEAE ALT increased, Grade 3” value (200 mg BIW) was 2 (6.7%), the “TEAE ALT increased, Grade 4” value (200 mg BIW) was 0 and the “TEAE ALT increased, Grade 5” value (200 mg BIW) was 0. For the same molecule, the “TEAE AML, Recurrent, Frequency” value (200 mg BIW) was 0, the “TEAE AML, Recurrent, Grade 2” value (200 mg BIW) was 0 and the “TEAE AML, Recurrent, Grade 3” value (200 mg BIW) was 0. For the same molecule, the “TEAE AML, Recurrent, Grade 4” value (200 mg BIW) was 0, the “TEAE AML, Recurrent, Grade 5” value (200 mg BIW) was 0 and the “TEAE AST increased, Frequency” value (200 mg BIW) was 7 (23.3%). The “TEAE AST increased, Grade 2” value (200 mg BIW) was 3 (10.0%), the “TEAE AST increased, Grade 3” value (200 mg BIW) was 0 and the “TEAE AST increased, Grade 4” value (200 mg BIW) was 0. For the same molecule, the “TEAE AST increased, Grade 5” value (200 mg BIW) was 0, the “TEAE Abdominal pain, Frequency” value (200 mg BIW) was 11 (36.7%) and the “TEAE Abdominal pain, Grade 2” value (200 mg BIW) was 8 (26.7%).
